Paper PMC7252619 (PLoS ONE, 2020)
Read-outs that look alike come from different tables or passages of the source.

Tests used:
[1] = test system: human CD19+ B cells; assay: B-cell assay: IgG production of ODN2006-stimulated primary B cells (AlphaLISA); format: cell-based; details: Homo sapiens, B-cell, 168 h; IgG production, ODN2006 0.1 μM, 7 days; mean of 4 independent experiments; read-out: B-cell IC50
[2] = molecular target: T1, DAPK1 (Homo sapiens, UniProt P53355); assay: Kinase activity test (ReactionBiology), % enzyme activity relative to DMSO; format: biochemical; details: DAPK1
T1 construct: purchased ReactionBiology

[3] = molecular target: T2, CK1d (Homo sapiens, UniProt P48730); assay: as above; format: biochemical; details: CK1d
T2 construct: purchased ReactionBiology

[4] = test system: human PBMCs (responder cells) with RPMI1788 stimulator cells; assay: Mixed Lymphocyte Reaction (MLR, T cell assay), 3H-thymidine incorporation; format: cell-based; details: for IC50: Homo sapiens, RPMI-1788, mean of 4 independent measures, read-out: T-cell efficacy, MLR IC 50 (µM) Mean
[5] = molecular target: VEGFR2 (Homo sapiens, UniProt P35968); assay: Kinase activity test (ReactionBiology), % enzyme activity relative to DMSO; format: biochemical; design: purchased ReactionBiology; details: VEGFR2;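 note: VEGFR2 was one member of a ten-kinase screening panel testing marketed FDA-approved drugs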
[6] = molecular target: T3, EPHB4 (Homo sapiens, UniProt P54760); assay: as above; format: biochemical; details: EPHB4;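 note: EPHB4 was one of ten selected kinases in the screening panel, with enzyme activity expressed as a percentage of DMSO controls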
T3 construct: purchased ReactionBiology
T3 sequence (P54760 16-987): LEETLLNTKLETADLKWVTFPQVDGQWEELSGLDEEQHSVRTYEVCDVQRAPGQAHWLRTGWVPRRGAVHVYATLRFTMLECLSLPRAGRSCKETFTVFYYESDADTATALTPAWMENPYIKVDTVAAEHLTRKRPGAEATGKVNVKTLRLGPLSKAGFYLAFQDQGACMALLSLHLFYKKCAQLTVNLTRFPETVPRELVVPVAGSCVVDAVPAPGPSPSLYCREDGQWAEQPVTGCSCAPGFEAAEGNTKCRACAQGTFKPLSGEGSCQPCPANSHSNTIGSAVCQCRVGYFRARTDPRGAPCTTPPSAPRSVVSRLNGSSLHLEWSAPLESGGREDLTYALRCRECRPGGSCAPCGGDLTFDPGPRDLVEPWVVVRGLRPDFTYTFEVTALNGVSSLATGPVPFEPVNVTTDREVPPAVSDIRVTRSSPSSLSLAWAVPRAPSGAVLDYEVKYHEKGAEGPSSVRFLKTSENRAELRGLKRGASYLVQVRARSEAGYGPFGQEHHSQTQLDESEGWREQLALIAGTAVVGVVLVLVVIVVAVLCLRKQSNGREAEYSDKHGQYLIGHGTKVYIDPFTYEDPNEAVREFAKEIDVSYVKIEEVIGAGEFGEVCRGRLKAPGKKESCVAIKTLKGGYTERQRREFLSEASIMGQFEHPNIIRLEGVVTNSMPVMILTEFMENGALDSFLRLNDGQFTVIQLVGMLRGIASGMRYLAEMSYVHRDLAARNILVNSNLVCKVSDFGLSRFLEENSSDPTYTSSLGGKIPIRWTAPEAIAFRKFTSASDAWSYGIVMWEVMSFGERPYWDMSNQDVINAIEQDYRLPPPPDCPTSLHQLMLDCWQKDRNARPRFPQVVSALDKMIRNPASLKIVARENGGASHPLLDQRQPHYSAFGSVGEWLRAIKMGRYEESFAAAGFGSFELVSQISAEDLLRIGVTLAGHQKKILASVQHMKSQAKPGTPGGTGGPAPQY

[7] = WST-1 cytotoxicity assay on RPMI1788 cells (B-cell line); format: cell-based, human; details: human, RPMI1788 cells (B-cell line), mean of 4 independent measures, read-out: Cytotoxicity, WST-1 RPMI 1788 IC 50 (µM) Mean
Method: Compounds were prepared as 10 mM stock solutions in dimethylsulfoxide (DMSO)and were tested at 50-10-1-0.1-0.01 and 0.001 μM in the 4 assays.
The human B cell line RPMI1788 (American Type Culture Collection, USA) and the human T cell line Jurkat (European Collection of Cell Cultures, ECACC, England) were maintained in RPMI1640 culture medium (BioWhittaker®, Lonza, Verviers, Belgium) containing 10% foetal calf serum (FCS, HyClone® Thermo Scientific, United Kingdom) and 5 μg/mL gentamicin sulphate (BioWhittaker®, Lonza, Verviers, Belgium) at 37°C and 5% CO2.
WST-1 assays on RPMI-1788 cells and Jurkat cells were performed as follows: 20 μL of test compound dilution were added to each well containing exponential growing cells and the plates were incubated for 48 h at 37°C, 5% CO2. Untreated cells and positive control (1% triton X-100, for the last 15 min) served as reference for maximum and minimum viability. At the end of incubation 100 μL of supernatant were removed and replaced by 10 μL of WST-1 solution (Cell Proliferation Reagent WST-1, Roche Applied Science).

[8] = WST-1 cytotoxicity assay on Jurkat cells (T-cell line); format: cell-based, human; details: human, Jurkat cells (T-cell line), mean of 4 independent measures, read-out: Cytotoxicity, WST-1 Jurkat IC 50 (µM) Mean
[9] = molecular target: T4, NEK2 (Homo sapiens, UniProt P51955); assay: Kinase activity test (ReactionBiology), % enzyme activity relative to DMSO; format: biochemical; details: NEK2;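 note: FDA-approved drugs chosen by structure-based repositioning, each screened at 10 or 1 µM for kinase activity, expressed as percent of DMSO controls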
T4 construct: purchased ReactionBiology
T4 sequence (P51955 1-445): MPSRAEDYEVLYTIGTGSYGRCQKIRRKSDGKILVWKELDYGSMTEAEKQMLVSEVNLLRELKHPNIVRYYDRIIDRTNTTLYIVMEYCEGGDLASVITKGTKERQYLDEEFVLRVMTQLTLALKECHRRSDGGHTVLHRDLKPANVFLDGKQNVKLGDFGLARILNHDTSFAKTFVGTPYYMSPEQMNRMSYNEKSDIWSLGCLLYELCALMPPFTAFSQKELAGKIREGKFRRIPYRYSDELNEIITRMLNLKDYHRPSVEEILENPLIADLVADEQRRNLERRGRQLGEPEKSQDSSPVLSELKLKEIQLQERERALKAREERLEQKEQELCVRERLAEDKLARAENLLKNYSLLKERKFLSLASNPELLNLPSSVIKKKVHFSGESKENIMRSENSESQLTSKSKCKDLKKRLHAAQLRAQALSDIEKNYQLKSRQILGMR

[10] = 1 uM, Average, read-out: % Enzyme Activity (relative to DMSO controls), Average
[11] = 1 uM, replicate Data 1, read-out: % Enzyme Activity (relative to DMSO controls), Data 1
[12] = 1 uM, replicate Data 2, read-out: % Enzyme Activity (relative to DMSO controls), Data 2
[13] = 10 uM, Average, read-out: % Enzyme Activity (relative to DMSO controls), Average
[14] = 10 uM, replicate Data 1, read-out: % Enzyme Activity (relative to DMSO controls), Data 1
[15] = 10 uM, replicate Data 2, read-out: % Enzyme Activity (relative to DMSO controls), Data 2
[16] = compound 1μM, relative to DMSO controls, read-out: % Enzyme activity at 1μM
[17] = compound 10μM, relative to DMSO controls, read-out: % Enzyme activity at 10μM
[18] = Average, read-out: % Enzyme Activity (relative to DMSO controls), Average
[19] = replicate Data 1, read-out: % Enzyme Activity (relative to DMSO controls), Data 1
[20] = replicate Data 2, read-out: % Enzyme Activity (relative to DMSO controls), Data 2

VEGFR2, sequence (P35968 20-1356): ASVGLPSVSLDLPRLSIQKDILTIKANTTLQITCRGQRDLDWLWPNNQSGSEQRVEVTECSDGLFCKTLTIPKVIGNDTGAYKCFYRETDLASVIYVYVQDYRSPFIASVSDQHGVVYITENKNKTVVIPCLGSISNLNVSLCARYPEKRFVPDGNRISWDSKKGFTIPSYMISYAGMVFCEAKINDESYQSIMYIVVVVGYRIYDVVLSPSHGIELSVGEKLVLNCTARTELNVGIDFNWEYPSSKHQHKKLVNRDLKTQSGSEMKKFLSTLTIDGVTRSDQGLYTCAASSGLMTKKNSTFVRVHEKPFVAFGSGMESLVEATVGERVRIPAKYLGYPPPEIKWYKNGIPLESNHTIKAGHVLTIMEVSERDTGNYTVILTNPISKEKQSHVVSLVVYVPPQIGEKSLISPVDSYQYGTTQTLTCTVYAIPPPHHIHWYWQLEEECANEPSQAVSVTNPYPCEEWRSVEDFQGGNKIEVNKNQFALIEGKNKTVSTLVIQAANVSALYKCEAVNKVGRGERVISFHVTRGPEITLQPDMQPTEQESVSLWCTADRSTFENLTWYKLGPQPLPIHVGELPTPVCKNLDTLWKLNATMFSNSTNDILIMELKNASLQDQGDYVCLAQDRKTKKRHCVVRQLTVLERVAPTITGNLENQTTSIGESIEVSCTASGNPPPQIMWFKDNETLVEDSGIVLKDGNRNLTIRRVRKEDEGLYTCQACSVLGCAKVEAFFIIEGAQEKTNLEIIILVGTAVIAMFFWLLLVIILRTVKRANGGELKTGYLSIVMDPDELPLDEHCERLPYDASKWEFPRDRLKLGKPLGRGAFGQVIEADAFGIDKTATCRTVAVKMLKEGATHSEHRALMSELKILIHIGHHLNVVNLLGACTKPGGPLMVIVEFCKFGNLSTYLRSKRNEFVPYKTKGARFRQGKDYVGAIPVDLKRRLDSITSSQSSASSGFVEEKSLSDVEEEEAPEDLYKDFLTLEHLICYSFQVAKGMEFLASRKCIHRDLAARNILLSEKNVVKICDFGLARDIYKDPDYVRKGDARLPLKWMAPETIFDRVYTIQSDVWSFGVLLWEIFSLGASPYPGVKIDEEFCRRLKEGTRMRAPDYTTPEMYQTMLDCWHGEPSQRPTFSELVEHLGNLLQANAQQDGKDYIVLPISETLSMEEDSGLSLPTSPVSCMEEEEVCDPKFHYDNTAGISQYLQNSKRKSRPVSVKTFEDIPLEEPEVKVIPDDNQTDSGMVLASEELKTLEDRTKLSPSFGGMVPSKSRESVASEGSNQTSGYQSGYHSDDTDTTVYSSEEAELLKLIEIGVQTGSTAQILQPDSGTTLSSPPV
T1 sequence (P53355 whole entry): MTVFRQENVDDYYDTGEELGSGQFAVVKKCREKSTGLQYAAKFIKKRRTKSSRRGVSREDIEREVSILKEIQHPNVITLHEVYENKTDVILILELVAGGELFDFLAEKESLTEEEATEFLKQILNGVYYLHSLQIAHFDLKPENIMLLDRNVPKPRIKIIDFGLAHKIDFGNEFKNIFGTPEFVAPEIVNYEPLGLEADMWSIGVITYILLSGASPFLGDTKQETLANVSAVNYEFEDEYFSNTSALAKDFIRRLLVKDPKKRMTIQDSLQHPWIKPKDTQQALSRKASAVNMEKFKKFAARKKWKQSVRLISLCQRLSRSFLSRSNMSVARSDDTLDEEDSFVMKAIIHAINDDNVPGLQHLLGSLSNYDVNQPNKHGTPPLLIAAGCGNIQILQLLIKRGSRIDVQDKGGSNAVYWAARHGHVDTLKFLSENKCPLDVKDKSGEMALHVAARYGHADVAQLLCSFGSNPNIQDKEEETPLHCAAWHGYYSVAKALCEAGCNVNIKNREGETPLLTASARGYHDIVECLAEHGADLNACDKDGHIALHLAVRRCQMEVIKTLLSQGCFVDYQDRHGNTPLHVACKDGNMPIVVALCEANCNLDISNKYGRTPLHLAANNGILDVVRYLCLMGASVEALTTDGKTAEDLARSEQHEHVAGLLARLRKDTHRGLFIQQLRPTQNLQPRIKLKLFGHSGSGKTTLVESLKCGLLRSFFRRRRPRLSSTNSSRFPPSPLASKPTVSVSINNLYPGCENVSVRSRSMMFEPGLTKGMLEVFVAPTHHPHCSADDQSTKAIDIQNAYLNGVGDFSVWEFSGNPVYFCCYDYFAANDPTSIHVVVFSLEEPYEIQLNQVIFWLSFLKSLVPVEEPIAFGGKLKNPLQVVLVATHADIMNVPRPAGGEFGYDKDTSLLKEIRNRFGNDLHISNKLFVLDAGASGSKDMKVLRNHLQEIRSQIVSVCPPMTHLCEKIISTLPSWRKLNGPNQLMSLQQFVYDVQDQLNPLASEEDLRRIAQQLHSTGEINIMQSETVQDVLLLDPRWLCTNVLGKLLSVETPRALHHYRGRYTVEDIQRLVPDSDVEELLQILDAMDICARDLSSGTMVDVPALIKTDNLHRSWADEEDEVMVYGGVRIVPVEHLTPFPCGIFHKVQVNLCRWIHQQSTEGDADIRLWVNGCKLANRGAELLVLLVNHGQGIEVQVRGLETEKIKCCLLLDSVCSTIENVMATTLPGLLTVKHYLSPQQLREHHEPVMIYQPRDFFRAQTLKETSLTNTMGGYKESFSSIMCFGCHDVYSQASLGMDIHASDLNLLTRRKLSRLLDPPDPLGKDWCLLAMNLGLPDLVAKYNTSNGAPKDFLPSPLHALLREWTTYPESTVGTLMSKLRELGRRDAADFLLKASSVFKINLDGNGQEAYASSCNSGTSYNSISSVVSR
T2 sequence (P48730 whole entry): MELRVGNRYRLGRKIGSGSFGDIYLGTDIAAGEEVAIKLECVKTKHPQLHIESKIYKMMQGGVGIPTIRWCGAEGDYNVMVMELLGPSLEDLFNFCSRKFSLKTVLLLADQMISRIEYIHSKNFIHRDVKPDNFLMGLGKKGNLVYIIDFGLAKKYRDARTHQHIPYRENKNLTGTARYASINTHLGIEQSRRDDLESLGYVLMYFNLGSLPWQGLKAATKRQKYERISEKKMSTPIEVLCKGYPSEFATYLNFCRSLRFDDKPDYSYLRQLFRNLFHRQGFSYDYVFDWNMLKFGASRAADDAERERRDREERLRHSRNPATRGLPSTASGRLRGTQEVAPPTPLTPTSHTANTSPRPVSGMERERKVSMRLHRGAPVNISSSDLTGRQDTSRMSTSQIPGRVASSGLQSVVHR

Which IC50 [1] does the source give for `C[C@]12CC[C@@H]3c4ccc(O)cc4CC[C@H]3[C@@H]1CC[C@@H]2O` [Estradiol, reference compound] here?
The IC50 was 33.9 µM.

And the remaining activity at 1 µM [2, 10]?
Its remaining activity at 1 µM is 111%.

What about the remaining activity at 1 µM [2, 11] of the same molecule?
The remaining activity at 1 µM was 98%.

What about the remaining activity at 1 µM [2, 12] of the same molecule?
The remaining activity at 1 µM was 123%.

What about the remaining activity at 10 µM [2, 13] of the same molecule?
Its remaining activity at 10 µM is 69%.

And the remaining activity at 10 µM [2, 14]?
Its remaining activity at 10 µM is 68.3%.

And the remaining activity at 10 µM [2, 15]?
The remaining activity at 10 µM was 69.7%.

What about the remaining activity at 1 µM [2, 16] of the same molecule?
Its remaining activity at 1 µM is 111%.

What about the remaining activity at 10 µM [2, 17] of the same molecule?
Its remaining activity at 10 µM is 69%.

What about the remaining activity at 1 µM [3, 18] of the same molecule?
Its remaining activity at 1 µM is 101%.

What about the remaining activity at 1 µM [3, 19] of the same molecule?
The remaining activity at 1 µM was 99.6%.

And the remaining activity at 1 µM [3, 20]?
Its remaining activity at 1 µM is 102%.

And the remaining activity at 10 µM [3, 18]?
Its remaining activity at 10 µM is 96.5%.

And the remaining activity at 10 µM [3, 19]?
The remaining activity at 10 µM was 98.7%.

What about the remaining activity at 10 µM [3, 20] of the same molecule?
The remaining activity at 10 µM was 94.2%.

What about the IC50 [4] of the same molecule?
The IC50 was 21.2 µM.

What about the “Selectivity Index (SI) MLR/B-cell” value ([4]; ratio of IC50 values) of the same molecule?
Its value is 0.63.

What about the remaining activity at 1 µM [5, 18] of the same molecule?
Its remaining activity at 1 µM is 115%.

What about the remaining activity at 1 µM [5, 19] of the same molecule?
Its remaining activity at 1 µM is 115%.

What about the remaining activity at 1 µM [5, 20] of the same molecule?
The remaining activity at 1 µM was 115%.

What about the remaining activity at 10 µM [5, 18] of the same molecule?
Its remaining activity at 10 µM is 105%.

What about the remaining activity at 10 µM [5, 19] of the same molecule?
The remaining activity at 10 µM was 106%.

And the remaining activity at 10 µM [5, 20]?
The remaining activity at 10 µM was 103%.

What about the remaining activity at 1 µM [6, 10] of the same molecule?
The remaining activity at 1 µM was 100%.

And the remaining activity at 1 µM [6, 11]?
Its remaining activity at 1 µM is 99.8%.

And the remaining activity at 1 µM [6, 12]?
The remaining activity at 1 µM was 100%.

What about the remaining activity at 10 µM [6, 13] of the same molecule?
The remaining activity at 10 µM was 91.9%.

And the remaining activity at 10 µM [6, 14]?
The remaining activity at 10 µM was 91.3%.

And the remaining activity at 10 µM [6, 15]?
Its remaining activity at 10 µM is 92.5%.

And the IC50 at 48 h [7]?
Its IC50 at 48 h is 35.9 µM.

And the IC50 at 48 h [8]?
The IC50 at 48 h was 19.5 µM.

What about the remaining activity at 1 µM [9, 18] of the same molecule?
Its remaining activity at 1 µM is 92.1%.

What about the remaining activity at 1 µM [9, 19] of the same molecule?
The remaining activity at 1 µM was 95.7%.

And the remaining activity at 1 µM [9, 20]?
Its remaining activity at 1 µM is 88.5%.

What about the remaining activity at 10 µM [9, 18] of the same molecule?
Its remaining activity at 10 µM is 89%.

And the remaining activity at 10 µM [9, 19]?
The remaining activity at 10 µM was 94.9%.

And the remaining activity at 10 µM [9, 20]?
Its remaining activity at 10 µM is 83%.

With `NC(=O)c1cccnc1` [Niacinamide, reference compound] as the molecule, how does the IC50 [1] read?
Its IC50 is > 50 µM.

What about the remaining activity at 1 µM [2, 10] of the same molecule?
Its remaining activity at 1 µM is 111%.

What about the remaining activity at 1 µM [2, 11] of the same molecule?
The remaining activity at 1 µM was 112%.

What about the remaining activity at 1 µM [2, 12] of the same molecule?
Its remaining activity at 1 µM is 110%.

And the remaining activity at 10 µM [2, 13]?
Its remaining activity at 10 µM is 100%.

And the remaining activity at 10 µM [2, 14]?
The remaining activity at 10 µM was 97.7%.

What about the remaining activity at 10 µM [2, 15] of the same molecule?
Its remaining activity at 10 µM is 103%.

What about the remaining activity at 1 µM [3, 18] of the same molecule?
Its remaining activity at 1 µM is 113%.

What about the remaining activity at 1 µM [3, 19] of the same molecule?
Its remaining activity at 1 µM is 107%.

What about the remaining activity at 1 µM [3, 20] of the same molecule?
Its remaining activity at 1 µM is 119%.

What about the remaining activity at 10 µM [3, 18] of the same molecule?
Its remaining activity at 10 µM is 101%.

What about the remaining activity at 10 µM [3, 19] of the same molecule?
The remaining activity at 10 µM was 97.9%.

What about the remaining activity at 10 µM [3, 20] of the same molecule?
Its remaining activity at 10 µM is 105%.

What about the IC50 [4] of the same molecule?
Its IC50 is > 50 µM.

What about the remaining activity at 1 µM [5, 18] of the same molecule?
The remaining activity at 1 µM was 96.4%.

And the remaining activity at 1 µM [5, 19]?
Its remaining activity at 1 µM is 97.5%.

What about the remaining activity at 1 µM [5, 20] of the same molecule?
Its remaining activity at 1 µM is 95.4%.

And the remaining activity at 10 µM [5, 18]?
Its remaining activity at 10 µM is 95.7%.

And the remaining activity at 10 µM [5, 19]?
The remaining activity at 10 µM was 90.6%.

What about the remaining activity at 10 µM [5, 20] of the same molecule?
The remaining activity at 10 µM was 101%.

What about the remaining activity at 1 µM [6, 10] of the same molecule?
Its remaining activity at 1 µM is 69.3%.

And the remaining activity at 1 µM [6, 11]?
Its remaining activity at 1 µM is 69%.

And the remaining activity at 1 µM [6, 12]?
The remaining activity at 1 µM was 69.6%.

And the remaining activity at 10 µM [6, 13]?
The remaining activity at 10 µM was 69.7%.

And the remaining activity at 10 µM [6, 14]?
Its remaining activity at 10 µM is 68.3%.

What about the remaining activity at 10 µM [6, 15] of the same molecule?
The remaining activity at 10 µM was 71.1%.

What about the remaining activity at 1 µM [6, 16] of the same molecule?
The remaining activity at 1 µM was 69.3%.

And the remaining activity at 10 µM [6, 17]?
The remaining activity at 10 µM was 69.7%.

And the IC50 at 48 h [7]?
Its IC50 at 48 h is > 50 µM.

What about the IC50 at 48 h [8] of the same molecule?
The IC50 at 48 h was > 50 µM.

And the remaining activity at 1 µM [9, 18]?
Its remaining activity at 1 µM is 87.3%.

What about the remaining activity at 1 µM [9, 19] of the same molecule?
The remaining activity at 1 µM was 81%.

And the remaining activity at 1 µM [9, 20]?
The remaining activity at 1 µM was 93.6%.

And the remaining activity at 10 µM [9, 18]?
Its remaining activity at 10 µM is 76.4%.

What about the remaining activity at 10 µM [9, 19] of the same molecule?
Its remaining activity at 10 µM is 65%.

What about the remaining activity at 10 µM [9, 20] of the same molecule?
The remaining activity at 10 µM was 87.8%.
